Tested on: scalp hair follicles
Test: Epilation force measured with trichotillometer vs placebo (Example 5)
Type: in vivo, human
Conditions: 10% solution vs placebo, average of 10 subjects; listed as 10% PE
Method: To evaluate the effect of a topically applied α1-AR agonist on the force required to pluck hairs from the scalp, a hand-held spring dynamometer, or “trichotillometer” was used (8). The trichotillometer records the maximum force threshold, in grams, required to pluck a single hair from the scalp; the performance and statistical variance of the instrument have been reported previously (8-10). Force measurements were performed using the trichotillometer on 10 subjects. The frontal area of scalp was divided into two 8×10 cm2 areas. On the right side 0.5 mL of a placebo vehicle was applied. […] After 45 minutes, ten hairs were plucked from each of the target areas with the trichotillometer.

CNC[C@H](O)c1cccc(O)c1 [phenylephrine]
average increase of epilation force threshold: 172%

Reference: US20260041652A1, “SYSTEM AND METHOD FOR PREVENTING ALOPECIA” (Follea International, priority 2024, published 2026)
